Results published in patent US20240034758A1, “NOVEL PEPTIDE AND USE THEREOF” (MEDI & GENE, priority 2020, published 2024).

System: mHypoE-N41 hypothalamic cells
Assay: Expression of appetite-promoting genes in hypothalamic cells
Assay type: cell-based
Settings: 100 nM, 24 hours; vs PBS control
Procedure: Furthermore, to confirm the appetite-regulating effect of the functional peptide in mHypoE-N41 hypothalamic cells, the hypothalamic cells were treated with PBS (control) and 100 nM mouse-derived functional peptide (experimental group) for 24 hours.

Substance | decrease of Agrp gene level compared to the control [%] | decrease of NPY gene level compared to the control [%]
human-derived functional peptide: Human IF1-derived peptide, SEQ ID NO: 2: GSDQSENVDRGAGSIREAGGAFGKREQAEEERYFRAQSREQLAALKK (listed as Homo sapiens) | 47.5 | 59.6
mouse-derived functional peptide: Mouse IF1-derived peptide, SEQ ID NO: 1: VSDSSDSMDTGAGSIREAGGAFGKREKAEEDRYFREKTKEQLAALRK (listed as Mus musculus) | 50.2 | 48.8
